pIC50: −log10 of the molar value.
Test system: 883617-216-R-J1-PDC complex spheroid viability
Assay: Anticancer human tumor 883617-216-R-J1-PDC patient-derived bladder carcinoma cell line growth inhibition [POLQ]
Settings: for pIC50: curve of first compound; for viability, T/C: stronger effect = lower value; active means viability on the fitted dose curve at most 10% of control; inactive means the rest
Method: Multicellular complex tumor spheroid response to Polymerase (POL) inhibitors (novobiocin, ART-558, RP6685) in combination with a variety of drugs and investigational agents in selected tumor cell lines
The POL inhibitors (novobiocin, ART-558, and RP6685) were evaluated both individually and in combination with standard of care and investigational anticancer small molecules within a complex spheroid model of solid tumors. . Complex spheroids include a stromal component modeled by human endothelial cells (HUVEC) and fibroblasts modeled by human mesenchymal stem cells (MSCs). The concentration ranges selected for each drug and investigational agent were based upon clinically achievable concentrations if the clinical Cmax of the agent was known.
Compounds. The drugs and investigational agents: novobiocin (NSC847541), ART-558 (NSC835418), RP-6685 (NSC848927), peposertib (NSC802822), ceralasertib (NSC780249), elimusertib (NSC800525), camonsertib (NSC841442), AZD-1390 (NSC803789), olaparib (NSC753686), talazoparib (NSC767125), rucaparib (NSC756644), sotorasib (NSC818433), MRTX-1133 (NSC836407), SN-38 (NSC673596), topotecan (NSC609699), epotoside (NSC141540), doxorubicin (NSC123127), gemcitabine (NSC613327), 5-fluorouracil (NSC19893), paclitaxel (NSC125973), vemurafenib (NSC761431), MSA-2 (NSC828583), SN-011 (NSC837082), adavosertib (NSC754352), prexasertib (NSC758257), carboplatin (NSC241240) and oxaliplatin (NSC266046), were obtained from the National Cancer Institute (NCI) Developmental Therapeutics Program Chemical Repository (21). The FDA-approved anticancer drug set is available from the Developmental Therapeutics Program at https://dtp.cancer.gov/organization/dscb/obtaining/. […] The stock solutions were prepared in dimethyl sulfoxide (DMSO, Sigma-Aldrich, St. Louis, MO, cat. D2650), except for the platinum compounds which were prepared in saline (Quality Biological, Gaithersburg, MD, cat. 114-055-101), at 800-fold the tested concentration and stored at -70 degrees C prior to their use. All drugs and investigational agents were tested over a range starting from a high concentration at or near the clinical Cmax and decreasing in half-log increments. If the clinical Cmax for an agent had not been determined, the highest concentration tested was 10 microM, except for SN-38, which was tested at a high concentration of 1 microM.
Cell Culture. All cells were maintained in an incubator at 37 degrees C and 5% CO2 with 95% humidity. The PDC lines were cultured according to standard operating procedures established by the NCI PDMR (https://pdmr.cancer.gov). Table 3 of the manuscript, lists the cell lines along with the number of the three cell types plated to form the mct-spheroids and media for tumor cell growth. After thawing, all PDC lines, except 997537-175-T-J1-PDC and 415267-285-R-J2-PDC, were cultured in Matrigel-coated flasks prepared with a working solution of 1X Ham's F-12 nutrient mix, without supplementation (Thermo Fisher Scientific, cat. 11765054), 100 U/mL penicillin-streptomycin (Thermo Fisher Scientific, cat. 15140122), and 2.5% Matrigel (Corning Inc., Corning, NY, cat. 354248) for the first three passages. The two PDC lines 997537-175-T-J1-PDC and 415267-285-R-J2-PDC were cultured on uncoated flasks. The 857933-349-R-J2-PDC line was cultured in 6C/Colon 1B media containing advanced DMEM/F-12 (Thermo Fisher Scientific, cat. 12634028), 10 mM HEPES (Thermo Fisher Scientific, cat. 15630080), 1X GlutaMAX supplement (Thermo Fisher Scientific, cat. 35050061), 0.1 mg/mL primocin (InvivoGen, San Diego, CA, cat. ant-pm-2), 10% defined fetal bovine serum, heat inactivated (HyClone Laboratories Inc., Logan, UT, cat. SH30070.03HI), 50% L-WRN conditioned media (ATCC, cat. CRL-3276), 1.25 mM N-Acetyl-L-cysteine (Sigma-Aldrich, cat. A9165), 10 mM nicotinamide (Sigma-Aldrich, cat. N0636), 1X B-27 supplement (Thermo Fisher Scientific, cat. 17504044), 1X N-2 supplement (Thermo Fisher Scientific, cat. […]

[1] = second compound 0.0316 µM, first compound 0.0316 µM
[2] = second compound 0.0316 µM, first compound 0.1 µM
[3] = second compound 0.0316 µM, first compound 0.316 µM
[4] = second compound 0.0316 µM, first compound 1 µM
[5] = second compound 0.0316 µM, first compound 3.16 µM
[6] = second compound 0.0316 µM, first compound 10 µM
[7] = second compound 0.1 µM, first compound 0.0316 µM
[8] = second compound 0.1 µM, first compound 0.1 µM
[9] = second compound 0.1 µM, first compound 0.316 µM
[10] = second compound 0.1 µM, first compound 1 µM
[11] = second compound 0.1 µM, first compound 3.16 µM
[12] = second compound 0.1 µM, first compound 10 µM
[13] = second compound 0.316 µM, first compound 0.0316 µM
[14] = second compound 0.316 µM, first compound 0.1 µM
[15] = second compound 0.316 µM, first compound 0.316 µM
[16] = second compound 0.316 µM, first compound 1 µM
[17] = second compound 0.316 µM, first compound 3.16 µM
[18] = second compound 0.316 µM, first compound 10 µM
[19] = second compound 1 µM, first compound 0.0316 µM
[20] = second compound 1 µM, first compound 0.1 µM
[21] = second compound 1 µM, first compound 0.316 µM
[22] = second compound 1 µM, first compound 1 µM
[23] = second compound 1 µM, first compound 3.16 µM
[24] = second compound 1 µM, first compound 10 µM
[25] = second compound 3.16 µM, first compound 0.0316 µM
[26] = second compound 3.16 µM, first compound 0.1 µM
[27] = second compound 3.16 µM, first compound 0.316 µM
[28] = second compound 3.16 µM, first compound 1 µM
[29] = second compound 3.16 µM, first compound 3.16 µM
[30] = second compound 3.16 µM, first compound 10 µM
[31] = second compound 10 µM, first compound 0.0316 µM
[32] = second compound 10 µM, first compound 0.1 µM
[33] = second compound 10 µM, first compound 0.316 µM
[34] = second compound 10 µM, first compound 1 µM
[35] = second compound 10 µM, first compound 3.16 µM
[36] = second compound 10 µM, first compound 10 µM
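Further: spheroids exposed to compounds for seven days before readout.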

COc1ccc([C@@H](O)c2cc(-c3ncnc4cc(N5CCOCC5)ccc34)c(F)cc2Cl)nn1 + Cc1cccc(N(C)C(=O)C2C(O)CCN2c2nc(C)cc(C(F)(F)F)c2C#N)c1
5.61: pIC50 (second compound 3.16 µM)
5.60: pIC50 (second compound 0.316 µM) | pIC50 (second compound 1 µM)
5.66: pIC50 (second compound 0.1 µM)
inactive: viability, T/C [1] 90.4% | viability, T/C [2] 105% | viability, T/C [3] 76% | viability, T/C [4] 75.5% | viability, T/C [5] 42.4% | viability, T/C [6] 36.9% | viability, T/C [7] 98.3% | viability, T/C [8] 84% | viability, T/C [9] 85.8% | viability, T/C [10] 67.9% | viability, T/C [11] 41% | viability, T/C [12] 31.4% | viability, T/C [13] 99% | viability, T/C [14] 101% | viability, T/C [15] 86.3% | viability, T/C [16] 71.6% | viability, T/C [17] 43.5% | viability, T/C [18] 33.4% | viability, T/C [19] 100% | viability, T/C [20] 98.3% | viability, T/C [21] 81.9% | viability, T/C [22] 63.4% | viability, T/C [23] 48.4% | viability, T/C [24] 32.8% | viability, T/C [25] 107% | viability, T/C [26] 99.8% | viability, T/C [27] 90.4% | viability, T/C [28] 61.4% | viability, T/C [29] 49.7% | viability, T/C [30] 33.8% | viability, T/C [31] 117% | viability, T/C [32] 92.5% | viability, T/C [33] 90.5% | viability, T/C [34] 65% | viability, T/C [35] 52.3% | viability, T/C [36] 35.6%
5.57: pIC50 (second compound 0.0316 µM)
5.45: pIC50 (second compound 10 µM)

COc1cc(C2c3cc4c(cc3C(OC3OC5COC(C)OC5C(O)C3O)C3COC(=O)C23)OCO4)cc(OC)c1O (stereo unspecified) + Nc1ccc(C#CCN(C(=O)Cc2ncc(C(F)(F)F)cc2C(F)(F)F)c2ccc(F)cc2)nn1
< 5.00: pIC50 (second compound 0.0316 µM) | pIC50 (second compound 0.1 µM) | pIC50 (second compound 0.316 µM) | pIC50 (second compound 1 µM) | pIC50 (second compound 3.16 µM) | pIC50 (second compound 10 µM)
inactive: viability, T/C [1] 103% | viability, T/C [2] 99.1% | viability, T/C [3] 65.7% | viability, T/C [4] 82.1% | viability, T/C [5] 67.5% | viability, T/C [6] 60% | viability, T/C [7] 112% | viability, T/C [8] 98.8% | viability, T/C [9] 81% | viability, T/C [10] 75.9% | viability, T/C [11] 69.4% | viability, T/C [12] 59.6% | viability, T/C [13] 104% | viability, T/C [14] 105% | viability, T/C [15] 92.3% | viability, T/C [16] 64.4% | viability, T/C [17] 69.7% | viability, T/C [18] 54% | viability, T/C [19] 104% | viability, T/C [20] 102% | viability, T/C [21] 83.2% | viability, T/C [22] 80% | viability, T/C [23] 87.8% | viability, T/C [24] 62.1% | viability, T/C [25] 91.8% | viability, T/C [26] 117% | viability, T/C [27] 81.8% | viability, T/C [28] 73.2% | viability, T/C [29] 69.1% | viability, T/C [30] 58.6% | viability, T/C [31] 101% | viability, T/C [32] 107% | viability, T/C [33] 92.3% | viability, T/C [34] 75% | viability, T/C [35] 80.7% | viability, T/C [36] 70.5%

O=c1[nH]cc(F)c(=O)[nH]1 + Nc1ccc(C#CCN(C(=O)Cc2ncc(C(F)(F)F)cc2C(F)(F)F)c2ccc(F)cc2)nn1
< 5.00: pIC50 (second compound 0.0316 µM) | pIC50 (second compound 0.1 µM) | pIC50 (second compound 0.316 µM) | pIC50 (second compound 1 µM) | pIC50 (second compound 3.16 µM) | pIC50 (second compound 10 µM)
inactive: viability, T/C [1] 112% | viability, T/C [2] 105% | viability, T/C [3] 93.2% | viability, T/C [4] 87.1% | viability, T/C [5] 94.2% | viability, T/C [6] 70.3% | viability, T/C [7] 102% | viability, T/C [8] 108% | viability, T/C [9] 101% | viability, T/C [10] 105% | viability, T/C [11] 93.3% | viability, T/C [12] 81.2% | viability, T/C [13] 103% | viability, T/C [14] 106% | viability, T/C [15] 107% | viability, T/C [16] 92.7% | viability, T/C [17] 94.7% | viability, T/C [18] 82.4% | viability, T/C [19] 93.5% | viability, T/C [20] 115% | viability, T/C [21] 99.2% | viability, T/C [22] 110% | viability, T/C [23] 105% | viability, T/C [24] 80.6% | viability, T/C [25] 100% | viability, T/C [26] 107% | viability, T/C [27] 101% | viability, T/C [28] 110% | viability, T/C [29] 103% | viability, T/C [30] 82.2% | viability, T/C [31] 128% | viability, T/C [32] 112% | viability, T/C [33] 120% | viability, T/C [34] 108% | viability, T/C [35] 104% | viability, T/C [36] 94.1%

— PubChem BioAssay AID1963833 (Molecular Pharmacology Branch, DTP, NCI, 2024)
